Columns and labels:
3T3-L1 adipocytes [1] = experiment: Fatty acid oxidation in 3T3-L1 adipocytes / adipocytes; format: cell-based; details: p<0.05
Excerpt: (§1) Data expressed as % change from control value.*p<0.05. The output of the pathways can be measured using one or more methods, disclosed herein and/or known in the art. […] Mitochondrial biogenesis can be measured using a mitochondrial probe by using fluorescence. AMPK activity can be determined by measuring AMPK phosphorylation via an ELISA assay or by Western blot. Sirt1 activity can be determined by measuring deacetylation of a substrate, which can be detected using a fluorophore. […] Treatment with 0.5 mM leucine corresponds to a circulating level of the same molarity achieved by administering about 1,125 mg of dietary leucine to a human subject. Treatment with 0.25 mM leucine corresponds to a circulating level of the same molarity achieved by administering about 300 mg of dietary leucine to a human subject.

3T3-L1 adipocytes [2] = experiment: Glucose utilization (extracellular acidification response to glucose injection) in 3T3-L1 adipocytes / adipocytes; format: cell-based
Protocol: (§2) Glucose utilization was measured as extracellular acidification response to glucose injection. *p=0.05. […] Treatment with 0.5 mM leucine corresponds to a circulating level of the same molarity achieved by administering about 1,125 mg of dietary leucine to a human subject. Treatment with 0.25 mM leucine corresponds to a circulating level of the same molarity achieved by administering about 300 mg of dietary leucine to a human subject.

[3] = Synergy on energy metabolism (fat oxidation, glucose utilization), cell type not stated; format: cell-based
Protocol: (§3) Vinopocetine, which is a PDE 1 inhibitor, was tested in combination with leucine, HMB, and resveratrol for its effects on energy metabolism.
(§4) Two PDE 3 inhibitors were studied, amrinone and cilostamide, in combination with leucine and HMB for their effects on energy metabolism.
(§5) Icariin is a naturally occurring flavonol with significant PDE 5 inhibitory activity.

[4] = Dose-response of the PDE inhibitor alone (concentration without effect); format: cell-based
Protocol: as §3, §4
Two PDE 4 inhibitors were studied, rolipram and YM796, in combination with leucine and HMB for their effects on energy metabolism.
as §5

C2C12 myotubes [5] = experiment: Fatty acid oxidation (O2 consumption response to palmitate injection) in C2C12 myotubes / muscle cells; format: cell-based; details: for increase in myotube fat oxidation, with HMB: PDE 5 inhibitor 1 nM with HMB (5 μM); for increase in myotube fat oxidation, with leucine: PDE 5 inhibitor 1 nM with leucine (0.5 mM); for increase in myotube fat oxidation, with resveratrol: PDE 5 inhibitor 1 nM with resveratrol (200 nM)
Protocol: as §1, with “Fatty acid oxidation was measured as O2 consumption response to palmitate injection and is expressed as % change from pre-injection baseline. […] Data” for “Data”, “value. *p=0.013; **p=0.015.” for “value.*p<0.05.”

C2C12 myotubes [6] = experiment: Mitochondrial biogenesis measured as mitochondrial mass in C2C12 myotubes; format: cell-based
Protocol: as §1, with “The” for “Data expressed as % change from control value.*p<0.05. The”

[7] = 25 mg/kg diet; ~4 mg/kg body weight; previous published studies; cited from earlier work
C2C12 myotubes [8] = experiment: Nitric oxide production in C2C12 myotubes; format: cell-based; details: HMB or resveratrol, each, p<0.0001
Protocol: Treatment with 0.5 mM leucine corresponds to a circulating level of the same molarity achieved by administering about 1,125 mg of dietary leucine to a human subject. Treatment with 0.25 mM leucine corresponds to a circulating level of the same molarity achieved by administering about 300 mg of dietary leucine to a human subject.

[9] = Substitution of leucine by other branched chain amino acids in the synergy with a PDE5 inhibitor
Excerpt: Branched chain amino acids that can be combined with a PDE-5 inhibitor have aliphatic side chains with a branch carbon atom that is bound to two or more other atoms. The other atoms may be carbon atoms. Examples of branched chain amino acids include leucine, isoleucine, and valine. Branched chain amino acids may also include other compounds, such as 4-hydroxyisoleucine. In some embodiments, the compositions are substantially free of one or more, or all of non-branched chain amino acids. In some embodiments, the compositions are substantially free of one or more, or all of non-branched chain amino acids in free amino acid form. For example, the compositions can be substantially free of […], and/or tyrosine. The compositions can be substantially free of […], and/or tyrosine in free amino acid form. In some embodiments, the branched chain amino acid is leucine. In some embodiments, the compositions may be substantially free of isoleucine and/or valine, which may be in free form. The synergistic effects between leucine and a PDE5 inhibitor, as described herein, are not observed when leucine is substituted with isoleucine and valine. Not wishing to be bound by any particular theory, isoleucine, valine, and leucine compete with each other for transport and/or absorption, and inclusion of isoleucine and valine in a composition would reduce the efficacy of any leucine in the composition. […]

AMPK [10] = experiment: AMPK activation in adipocytes; format: cell-based; details: rolipram 0.1 nM combinations
Excerpt: (§6) The output of the pathways can be measured using one or more methods, disclosed herein and/or known in the art. For example, fatty acid oxidation can be determined by measuring oxygen consumption, or 3H-labeled palmitate oxidation. Mitochondrial biogenesis can be measured using a mitochondrial probe by using fluorescence. AMPK activity can be determined by measuring AMPK phosphorylation via an ELISA assay or by Western blot. Sirt1 activity can be determined by measuring deacetylation of a substrate, which can be detected using a fluorophore.
(§7) Two PDE 4 inhibitors were studied, rolipram and YM796, in combination with leucine and HMB for their effects on energy metabolism. Dose-response indicate concentrations of 0.1 nM or below of rolipram and YM796 exert no effect; accordingly, this was the concentration used in these experiments. […] However, no synergy was found for glucose utilization or AMPK activation.

C2C12 myotubes [11] = experiment: Glucose utilization (extracellular acidification response to glucose injection) in C2C12 myotubes / muscle cells; format: cell-based
Protocol: as §2, with “*p=0.04.” for “*p=0.05.”

AMPK [12] = experiment: AMPK activity / phosphorylation in muscle cells; format: cell-based
Excerpt: as §6, §7

diet-induced obese mouse = experiment: Post-prandial glucose, insulin and HOMAIR in the diet-induced obese mouse; format: in vivo; details: 14-day treatment
Protocol: The interactive effects of icariin, a flavanol with specific PDE5 inhibitory properties, on glycemia and insulin sensitivity were assessed in the diet-induced obese mouse, which can be used as a murine model of type 2 diabetes. Male C57/BL6 mice were placed on standard low-fat chow (control; 10% energy from fat) or high fat (60% energy from fat, Research Diets # D12492, Research Diets, Inc, New Brunswick, N.J.) at six weeks of age to induce insulin resistance. […], with 10 animals per group: Low fat diet (LFD) control; High fat diet (HFD) control; HFD+leucine (24 g/kg diet, a two-fold increase over control levels)1 HFD+leucine (24 g/kg diet)+icariin (25 mg/kg diet). […] Mice were fasted overnight (˜16 hours) prior to measurement of fasting blood glucose, insulin and glucose tolerance. Glucose tolerance was determined following measurement of fasting glucose via intraperitoneal administration of glucose (1.2 g/kg body weight) followed by blood glucose measurement at 15, 30, 60, 90 and 120 minutes. Post-prandial glucose was measured within one hour of cessation of eating. Insulin tolerance was measured via an insulin tolerance test (ITT). Food was removed 4-6 hours prior to ITT, and baseline blood glucose measured. The mice were then injected intraperitoneally with insulin (1.2 U/kg body weight) and blood glucose was measured 15, 30, 60, 90 and 120 minutes following insulin injection. The homeostasis model assessment of insulin resistance (HOMAIR) was used as a screening index of changes in insulin sensitivity. HOMAIR is calculated via standard formula from fasting plasma insulin and glucose as follows: HOMAIR=[Insulin (uU/mL)×glucose (mM)]/22.5. The plasma glucose and insulin concentrations were measured using the Glucose Assay Kit from Biovision (Milpitas, Calif.) and the Insulin kit from Millipore (Billerica, Mass.), respectively. CRP levels in plasma were determined by ELISA (CRP: Life Diagnostics, West Chester, Pa.).

[13] = vinpocetine 0.1 nM with either leucine (0.5 mM) or HMB (5 μM)

CC(C)(O)CC(=O)O [HMB, beta-hydroxymethylbutyrate]
fatty acid oxidation, agent alone (3T3-L1 adipocytes [1]; 3T3-L1 adipocytes, leucine 0.5 mM or HMB 5 μM alone): 29%

CCOC(=O)C1=C[C@]2(CC)CCCN3CCc4c(n1c1ccccc41)[C@@H]32 [Vinpocetine]
increase in glucose utilization (3T3-L1 adipocytes [2]; adipocytes, vinpocetine 0.1 nM with low-dose resveratrol (200 nM), p=0.03): 70%
synergy with respect to fat oxidation [3, 13]: no synergy
synergy with respect to glucose utilization [3, 13]: no synergy
concentration that exerts no effect (dose-response) [4]: ≤ 0.1 nM

Nc1cc(-c2ccncc2)c[nH]c1=O [amrinone]
synergy with either leucine or HMB (energy metabolism) ([3]; amrinone 10 nM): no significant synergy

CN(C(=O)CCCOc1ccc2[nH]c(=O)ccc2c1)C1CCCCC1 [cilostamide]
increase in fat oxidation (3T3-L1 adipocytes [1]; adipocytes, cilostamide 10 nM combined with either leucine (0.5 mM) or HMB (5 μM)): 58%
increase in fat oxidation (C2C12 myotubes [5]; muscle cells, cilostamide 10 nM combined with either leucine (0.5 mM) or HMB (5 μM), p<0.05): 92%

COc1ccc(-c2oc3c(CC=C(C)C)c(O[C@@H]4O[C@H](CO)[C@@H](O)[C@H](O)[C@H]4O)cc(O)c3c(=O)c2O[C@@H]2O[C@@H](C)[C@H](O)[C@@H](O)[C@H]2O)cc1 [icariin]
synergy with respect to glucose utilization ([3]; icariin 1 nM): did not exhibit significant synergy
concentration that exerts no effect (dose-response) [4]: below 1 nM
increase in myotube fat oxidation, with HMB (C2C12 myotubes [5]; C2C12 myotubes): 75%
increase in myotube fat oxidation, with leucine (C2C12 myotubes [5]; C2C12 myotubes): 77%
increase in myotube fat oxidation, with resveratrol (C2C12 myotubes [5]; C2C12 myotubes): 157%
synergy with both leucine and HMB to up regulate mitochondrial biogenesis (C2C12 myotubes [6]; icariin 1 nM, FIG. 13, p<0.001): significant synergy
effect of the selected level [7]: no effect
effect on nitric oxide production (C2C12 myotubes [8]; icariin with leucine): modest, significant effects

CC[C@H](C)[C@H](N)C(=O)O [isoleucine]
synergistic effects with a PDE5 inhibitor when substituted for leucine [9]: not observed

Oc1ccc(/C=C/c2cc(O)cc(O)c2)cc1 [resveratrol, 3,5,4′-Trihydroxy-trans-stilbene]
effect of resveratrol on the sildenafil interaction (mitochondrial biomass) (C2C12 myotubes [6]; FIG. 12): no significant effect
interaction of resveratrol with icariin (mitochondrial biogenesis) (C2C12 myotubes [6]; FIG. 13): did not exhibit a significant interaction

COc1ccc(C2CNC(=O)C2)cc1OC1CCCC1 (stereo not drawn) [rolipram]
synergy for glucose utilization (3T3-L1 adipocytes [2]; adipocytes, rolipram 0.1 nM combinations): no synergy
synergistic effect with leucine, HMB or resveratrol with respect to fat oxidation (C2C12 myotubes [5]; muscle cells, rolipram 0.1 nM): no synergistic effect
synergy for AMPK activation (AMPK [10]): no synergy
synergistic effect with leucine, HMB or resveratrol with respect to glucose utilization (C2C12 myotubes [11]; muscle cells, rolipram 0.1 nM): no synergistic effect
synergistic effect with leucine, HMB or resveratrol with respect to AMPK activity (AMPK [12]; muscle cells, rolipram 0.1 nM): no synergistic effect
AMPK phosphorylation (AMPK [12]; rolipram alone, not augmented by leucine or HMB): activated

CCCc1nn(C)c2c(=O)[nH]c(-c3cc(S(=O)(=O)N4CCN(C)CC4)ccc3OCC)nc12 [sildenafil]
synergy of HMB or resveratrol with sildenafil on glucose utilization (3T3-L1 adipocytes [2]; 3T3-L1 adipocytes): neither HMB nor resveratrol exerted any significant synergy
concentration that exerts no effect (dose-response) [4]: below 1 nM
increase in myotube fat oxidation, with HMB (C2C12 myotubes [5]; C2C12 myotubes): 203%
increase in myotube fat oxidation, with leucine (C2C12 myotubes [5]; C2C12 myotubes): 232%
increase in myotube fat oxidation, with resveratrol (C2C12 myotubes [5]; C2C12 myotubes): no interaction
fatty acid oxidation, agent alone (C2C12 myotubes [5]; C2C12 myotubes, sildenafil 1 nM (change from baseline) or leucine 0.5 mM alone): about 50%
augmentation of myotube glucose utilization, with resveratrol (C2C12 myotubes [11]; C2C12 myotubes, sildenafil 1 nM with resveratrol 200 nM, p=0.04): 53%
increase in nitric oxide production (C2C12 myotubes [8]; sildenafil (1 nM) with leucine): 15-30%

CC(C)[C@H](N)C(=O)O [valine]
synergistic effects with a PDE5 inhibitor when substituted for leucine [9]: not observed

insulin
decrease in HOMAIR vs. untreated HFD mice (diet-induced obese mouse): ~40%
decrease in circulating (post-prandial) insulin vs. untreated HFD mice (diet-induced obese mouse): ~30%
